Like-named read-outs stand apart in the source and are kept apart here.

Data set [1] in a line: Drug stability in simulated gastric fluid (SGF), HPLC. Particulars: for stability in SGF: SGF pH ~1.2, 37 °C, 24 h, salt forms. The protocol: To determine drug stability at low pH, the drugs were dissolved in methanol to form a concentrated stock solution. Methanol solutions were then diluted 20-fold in simulated gastric fluid, USP without pepsin (pH ~1.2; henceforth referred to as SGF). Drug solutions were then placed in a shaker incubator (New Brunswick™ Innova® 44, Eppendorf, USA) at 37 °C and 150 r.p.m. At various times, aliquots were withdrawn and stored at −20 °C until analysis. Drug concentrations in the solution were analysed using HPLC and reported as percent of the initial concentrations.
The output signal was monitored and processed using ChemStation® software (Agilent Technologies Inc., USA). Chromatographic separation was carried out on a 50 mm × 4.6 mm EC-C18 Agilent Poroshell 120 analytical column with 2.7 µm spherical particles.
The injection volume was 5 µL, and the UV detection wavelength of 260 nm was selected.
For RPV, the stationary phase was maintained at 40 °C. The mobile phase consisted of methanol: water (pH 3.5 adjusted with 0.1% formic acid) (43:57 v/v) at a flow rate of 0.9 mL/min over a 10 min run time. The injection volume was 20 µL, and the UV detector was set at 290 nm.
For CAB, the column was maintained at 45 °C and the optimized mobile phase consisted of acetonitrile: water (pH 3.5 adjusted with 0.1% formic acid) (30:70 v/v) at flow rate of 0.8 mL/min over an 8 min run time. For analysis, 5 µL of the sample was injected on to the column, and the samples were analysed at a wavelength of 260 nm.
For tenofovir alafenamide, the column was maintained at 22 °C. The mobile phase consisted initially of acetonitrile: water (pH 3.5 adjusted with 0.1% formic acid) (100:0 v/v). […] The flow rate was 0.6 mL/min and the run time was 8 min. The injection volume was 10 µL, and the UV detection wavelength of 260 nm was selected.

Data set [2] is described as follows: Drug stability at high temperature (150 °C, 2 h), HPLC. Type of data set: physicochemical. Particulars: 150 °C for 2 h. The method, then:
To determine the drug stability at high temperatures, the drug was weighed in a 20 mL glass vial, and placed in a convection oven at 150 °C for 2 h. Drug was dissolved in methanol, and the concentration was compared to that of an unheated standard of the same initial concentration via HPLC.

Data set [3] can be described thus: Plasma pharmacokinetics of immediate release and gastric resident dosage forms in pigs. The settings on record: for Tmax: female, Yorkshire, pig, plasma, oral, post-dose, read-out: time of maximum plasma concentration (converted); for duration of sustained drug concentrations: single dose. Type of data set: in vivo, Yorkshire pigs. The method, then:
All animal experiments were approved by the Committee on Animal Care at the Massachusetts Institute of Technology. In vivo pharmacokinetics were evaluated in an unblinded fashion in female Yorkshire pigs (50–95 kg) that were randomly assigned to the immediate release or sustained release groups. Animals were fed daily in the morning and in the evening with a diet consisting of pellets (Laboratory mini-pig growler diet, 5081), with a midday snack consisting of various fruits and vegetables. Specifically, the pellets were 5/32” x ¼” length, and consisted of ground oats, alfalfa meal, wheat middlings, soybean meal, dried beet pulp, salts and other micronutrients.
To determine the oral pharmacokinetics of immediate release dosage forms of DTG and CAB, 50 mg of DTG and 30 mg of CAB were weighed and filled into gelatine capsules. For RPV pharmacokinetics, RPV base was dissolved in poly(ethylene glycol) (molecular weight—400 Da) containing 10-fold molar excess of citric acid. The concentration of RPV base in this solution was 5 mg/mL and 5 mL of the solution was dosed in a gelatine capsule. […] To determine oral pharmacokinetics from gastric retentive dosage forms, the arms of dosage forms (2–3/pig containing 350 mg DTG, 175 mg RPV or 210 mg CAB) were folded into capsule shells immediately prior to dosing. […]. The capsules containing drug or dosage form were delivered into the intestine or stomach respectively. At various time points, blood samples (0.5 mL) were collected from a central line connected to the external jugular vein or from a mammary vein into […] Vacutainer gold top tubes (Becton, Dickinson and Co. USA). Plasma samples were separated from blood by centrifugation (1800g, 10 min at 4 °C) and were stored at −80 °C. Atropine can reduce gastric acid production and gastric motility which may affect the overall drug pharmacokinetics and the gastric retention of the dosage form. […]. Drug concentrations in the plasma were analysed using UPLC-MS/MS. Plasma samples (100 µL) were spiked with 200 µL acetonitrile solution of 250 µg/mL maraviroc (internal standard) to cause precipitation. Samples were vortexed and sonicated for 10–20 min and then centrifuged (21130g, 10 min). Two hundred microliters of solution were pipetted into a 96-well plate containing 200 µL of nanopure water. Finally, 2.5 μL was injected onto the UPLC–ESI–MS system for analysis.
UPLC separation was carried out on a Waters® UPLC aligned with a Waters® Xevo–TQ-SMS mass spectrometer (Waters Ltd., UK). MassLynx® 4.1 software was used for data acquisition and analysis. Liquid chromatography separation was performed on an Acquity® UPLC CSH C18 (50 × 2.1 mm, 1.7 μm particle size) column at 50 °C. The mobile phase consisted of acetonitrile spiked with 0.1% formic acid and 10 mM ammonium formate solution. The mobile phase was flowed at a rate of 0.6 mL/min using a time and solvent gradient composition. The initial composition (100% aqueous) was held for 1 min, following which the composition was changed linearly to 20% organic phase over the next 0.25 min. The composition was then brought to 100% organic over 1.25 min, held for 0.5 min and finally shifted to the initial composition and held constant until the end of the run for column equilibration. The total run time was 4 min and sample injection volume was 2.5 μL. The mass spectrometer was operated in the multiple reaction monitoring (MRM) mode. Sample introduction and ionization was by electrospray ionization (ESI) in the positive ion mode. DTG, RPV and CAB were analysed at mass-to-charge ratios of […] respectively. Stock solutions of DTG, RPV, CAB, and an internal standard maraviroc were prepared in methanol at a concentration of 500 μg/mL. A ten-point calibration curve was prepared ranging from 2.5–5000 ng/mL. Quality control samples were prepared in a similar procedure using an independent stock solution at three concentrations (5, 50 and 500 ng/mL). […]

The conditions of data set [4]: humans receiving the usual oral dose; stated by Reviewer 1, no reference; cited from earlier work.
Details of data set [5]: method as in ref 58 (a number printed in a supplementary file, which may have a reference list of its own: not looked up in the article's list). The settings on record: cited from earlier work.
The subject of data set [6] is HIV reference strain NL4-3. Also noted: method as in ref 46,55–57 (a number printed in a supplementary file, which may have a reference list of its own: not looked up in the article's list). The settings on record: wild-type virus; cited from earlier work.
The test system of data set [7] is drug-resistant HIV strains. Particulars: cited from earlier work.
The conditions of data set [8]: pig, in vivo, po; cited from earlier work.
The mark [9] stands for this setting: immediate release formulation, pigs.
The mark [10] stands for this setting: immediate release formulation, pigs, n = 3.

Take `C[C@H]1CO[C@@H]2Cn3cc(C(=O)NCc4ccc(F)cc4F)c(=O)c(O)c3C(=O)N12` [CAB, cabotegravir]: the “stability in SGF” value in data set [1] is reported as “stable”. Further, the “stability at elevated temperature” value in data set [2] was “stable”. Moreover, in data set [3] (setting [9]), the Tmax is 6 h, the “day at or after which no drug was detected in plasma” value stood at 3 days and the “time for which drug was detectable in plasma” value is reported as “up to 2 days”. In addition, the “average peak plasma concentration, fold lower than immediate release” value in data set [3] (gastric resident system vs immediate release, pigs) is on record as ~ 2.5 fold. Also, in data set [3] (gastric resident system, pigs, n = 3), the “average (sustained) plasma drug concentrations throughout the week following dosing” value was 200 to 500 ng/mL. In data set [3] (gastric resident system), the “duration of sustained drug concentrations” value was “up to 1 week”. In addition, the “average maximum plasma concentration” value in data set [3] (setting [10]) is approximately 1400 ng/mL. In addition, the “usual Cmax in humans” value in data set [4] is 2800 ng/mL.
With `Cc1cc(/C=C/C#N)cc(C)c1Nc1ccnc(Nc2ccc(C#N)cc2)n1` [RPV, rilpivirine], in data set [1], the “stability in SGF” value is “stable”. Further, the “stability at elevated temperature” value in data set [2] was “stable”. Also, the Tmax in data set [3] (175 mg, gastric resident dosage form, pigs) was 24 h. Further, the “maintenance of plasma concentrations” value in data set [3] (gastric resident dosage form, pigs, entirety of the study) was “comparable to the Cmax were maintained for the entirety of the study”. Further, the “duration of sustained drug concentrations” value in data set [3] (gastric resident system) is reported as “up to 1 week”. Moreover, in data set [3] (setting [9]), the “time for plasma concentration to drop below the limit of detection” value is not above 2 days. For the same molecule, the “average maximum plasma concentration” value in data set [3] (setting [10]) is approximately 25 ng/mL. For the same molecule, the “Half-life, τ1/2” value in data set [5] was 50 h. The Cmax (usually the peak of the concentration-time curve) in data set [5] (maximum plasma concentration at steady state, perfect adherence) is 510 nM. Moreover, the IC50 (usually the concentration needed to halve the response being measured) in data set [6] was 105 nM. In data set [6], the “m (slope parameter of Hill curve)” value is 1.83. Moreover, the “Fold change in IC50 (ρ)” value is on record as 3.20 in data set [7] (mutation E138K/M184I); 22.60 in data set [7] (mutation E138K/M230L); 2.30 in data set [7] (mutation E138K); 3.20 in data set [7] (mutation K101E/E138K); 5.80 in data set [7] (mutation K101E/M184I); 3.00 in data set [7] (mutation K101E). Further, the “Fold change in IC50 (ρ)” value in data set [7] (mutation K101P) was 102.13; in data set [7] (mutation K103N) it was 1.23; in data set [7] (mutation M184I), 1.50; in data set [7] (mutation M230L), 3.40; in data set [7] (mutation Y181C/Y188L), 30.20; in data set [7] (mutation Y181C), 1.72. Besides, the “Fold change in IC50 (ρ)” value in data set [7] (mutation Y181I) is 152.91; in data set [7] (mutation Y181V), 31.00; in data set [7] (mutation Y188L), 6.00. In addition, the “Fractional change in slope (σ)” value in data set [7] (mutation K101P) is reported as -0.21; in data set [7] (mutation K103N), 0.12; in data set [7] (mutation Y181C), -0.48; in data set [7] (mutation Y181I) it was -0.10. Moreover, the “usual Cmax in humans” value in data set [4] is given as 200 ng/mL.
As to `CC(C)OC(=O)[C@H](C)N[P@](=O)(CO[C@H](C)Cn1cnc2c(N)ncnc21)Oc1ccccc1` [TAF, tenofovir alafenamide], the drug remaining stable in data set [1] (after 10 h of incubation in SGF, 37 °C) is recorded as 10%.
For `C[C@]12C=CC(=O)C=C1CC[C@@H]1[C@@H]2[C@@H](O)C[C@@]2(C)[C@H]1CC[C@]2(O)C(=O)CO` [prednisolone], the “concentrations achieved in pigs relative to those observed in humans” value in data set [8] was “about one tenth”.

The values above are taken from publication PMC5760734, “Development of an oral once-weekly drug delivery system for HIV antiretroviral therapy” (Nature Communications, 2018).
